{"source": "patent US6355799B1", "about": "“Substituted benzene compounds, process for their preparation, and herbicidal and defoliant compositions containing them” (ISK Americas Incorporated, priority 1997, dated 2002)", "format_in_all_cases": "in vivo", "key": {"[1]": {"test_system": "sicklepod (Cassia obtusifolia, CASOB)", "experiment": "Post-emerge test, greenhouse herbicide activity screening", "conditions": "post-emerge, phytotoxicity rating 0-100 at 14 days after application", "outline": "(§1)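 Rating: 0–100 visual injury, 14 DAA. Application: acetone, 187 l/ha, 15–1000 g ai/ha, flat-fan track sprayer with nozzle 40–45 cm above soil or canopy. Post-emerge runs used 0.25% v/v surfactant on 2–3 leaf plants.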"}, "[2]": {"test_system": "barnyardgrass (Echinochloa crus-galli, ECHCG)", "experiment": "Post-emerge test, greenhouse herbicide activity screening", "conditions": "post-emerge, phytotoxicity rating 0-100 at 14 days after application", "outline": "as §1"}, "[3]": {"test_system": "green foxtail (Setaria viridis, SETVI)", "experiment": "Post-emerge test, greenhouse herbicide activity screening", "conditions": "post-emerge, phytotoxicity rating 0-100 at 14 days after application", "outline": "as §1"}, "[4]": {"test_system": "velvetleaf (Abutilon theophrasti, ABUTH)", "experiment": "Post-emerge test, greenhouse herbicide activity screening", "conditions": "post-emerge, phytotoxicity rating 0-100 at 14 days after application", "outline": "as §1"}, "[5]": {"test_system": "ivyleaf morningglory (Ipomoea hederacea, IPOHE)", "experiment": "Post-emerge test, greenhouse herbicide activity screening", "conditions": "post-emerge, phytotoxicity rating 0-100 at 14 days after application", "outline": "as §1"}, "[6]": {"test_system": "large crabgrass (Digitaria sanguinalis, DIGSA)", "experiment": "Post-emerge test, greenhouse herbicide activity screening", "conditions": "post-emerge, phytotoxicity rating 0-100 at 14 days after application", "outline": "as §1"}, "[7]": {"test_system": "lambsquarters (Chenopodium album, CHEAL)", "experiment": "Post-emerge test, greenhouse herbicide activity screening", "conditions": "post-emerge, phytotoxicity rating 0-100 at 14 days after application", "outline": "as §1"}, "[8]": {"test_system": "johnsongrass (Sorghum halepense, SORHA)", "experiment": "Post-emerge test, greenhouse herbicide activity screening", "conditions": "post-emerge, phytotoxicity rating 0-100 at 14 days after application", "outline": "as §1"}, "[9]": {"test_system": "redroot pigweed (Amaranthus retroflexus, AMARE)", "experiment": "Post-emerge test, greenhouse herbicide activity screening", "conditions": "post-emerge, phytotoxicity rating 0-100 at 14 days after application", "outline": "as §1"}, "[10]": {"test_system": "redroot pigweed (Amaranthus retroflexus, AMARE)", "experiment": "Pre-emerge test, greenhouse herbicide activity screening", "conditions": "pre-emerge, phytotoxicity rating 0-100 at 14 days after application", "outline": "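Visual ratings on a 0-100 scale (0 no damage, 100 all plants dead) were taken at 14 days after treatment. Rates of 15-1000 g ai/ha in acetone, 187 l/ha, were sprayed onto soil one day after planting (pre-emerge) or onto 2-3 leaf plants with 0.25% v/v surfactant (post-emerge).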"}, "[11]": {"test_system": "sicklepod (Cassia obtusifolia, CASOB)", "experiment": "Pre-emerge test, greenhouse herbicide activity screening", "conditions": "pre-emerge, phytotoxicity rating 0-100 at 14 days after application", "outline": "(§2)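 Compounds in acetone were track-sprayed at 187 l/ha, 15–1000 g ai/ha, onto sandy loam pots. Pre-emerge seeds were sown one day before spraying, with surface watering afterwards. Post-emerge plants were at the 2–3 leaf stage and sprayed with 0.25% v/v non-ionic surfactant. Injury was rated 0–100 at 14 days.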"}, "[12]": {"test_system": "barnyardgrass (Echinochloa crus-galli, ECHCG)", "experiment": "Pre-emerge test, greenhouse herbicide activity screening", "conditions": "pre-emerge, phytotoxicity rating 0-100 at 14 days after application", "outline": "as §2"}, "[13]": {"test_system": "green foxtail (Setaria viridis, SETVI)", "experiment": "Pre-emerge test, greenhouse herbicide activity screening", "conditions": "pre-emerge, phytotoxicity rating 0-100 at 14 days after application", "outline": "as §2"}, "[14]": {"test_system": "velvetleaf (Abutilon theophrasti, ABUTH)", "experiment": "Pre-emerge test, greenhouse herbicide activity screening", "conditions": "pre-emerge, phytotoxicity rating 0-100 at 14 days after application", "outline": "as §2"}, "[15]": {"test_system": "ivyleaf morningglory (Ipomoea hederacea, IPOHE)", "experiment": "Pre-emerge test, greenhouse herbicide activity screening", "conditions": "pre-emerge, phytotoxicity rating 0-100 at 14 days after application", "outline": "as §2"}, "[16]": {"test_system": "large crabgrass (Digitaria sanguinalis, DIGSA)", "experiment": "Pre-emerge test, greenhouse herbicide activity screening", "conditions": "pre-emerge, phytotoxicity rating 0-100 at 14 days after application", "outline": "as §2"}, "[17]": {"test_system": "lambsquarters (Chenopodium album, CHEAL)", "experiment": "Pre-emerge test, greenhouse herbicide activity screening", "conditions": "pre-emerge, phytotoxicity rating 0-100 at 14 days after application", "outline": "as §2"}, "[18]": {"test_system": "johnsongrass (Sorghum halepense, SORHA)", "experiment": "Pre-emerge test, greenhouse herbicide activity screening", "conditions": "pre-emerge, phytotoxicity rating 0-100 at 14 days after application", "outline": "as §2"}, "[19]": {"test_system": "upland rice (Oryza sp., var. Tebonnet, RICE)", "experiment": "Pre-emerge test, crop safety", "conditions": "crop damage, pre-emerge, phytotoxicity rating 0-100 at 14 days after application", "outline": "as §2"}, "[20]": {"test_system": "field corn (Zea mays L., var. Dekalb 535, CORN)", "experiment": "Pre-emerge test, crop safety", "conditions": "crop damage, pre-emerge, phytotoxicity rating 0-100 at 14 days after application", "outline": "as §2"}, "[21]": {"test_system": "upland rice (Oryza sp., var. Tebonnet, RICE)", "experiment": "Post-emerge test, crop safety", "conditions": "post-emerge, crop damage rating 0-100 at 14 days after application", "outline": "as §2"}, "[22]": {"test_system": "field corn (Zea mays L., var. Dekalb 535, CORN)", "experiment": "Post-emerge test, crop safety", "conditions": "post-emerge, crop damage rating 0-100 at 14 days after application", "outline": "as §2"}}, "data": [{"smiles": "COc1ccccc1COC(=O)Nc1c(C)c(Cl)cc(F)c1-n1c(=O)cc(C(F)(F)F)n(C)c1=O", "note": "[4-58]", "values": [{"measurement": "Post-emerge Herbicidal Activity CASOB", "setting": "[1]; 63 g ai/ha", "value": 90}, {"measurement": "Post-emerge Herbicidal Activity CASOB", "setting": "[1]; 250 g ai/ha", "value": 100}, {"measurement": "Post-emerge Herbicidal Activity ECHCG", "setting": "[2]; 63 g ai/ha", "value": 30}, {"measurement": "Post-emerge Herbicidal Activity ECHCG", "setting": "[2]; 250 g ai/ha", "value": 40}, {"measurement": "Post-emerge Herbicidal Activity SETVI", "setting": "[3]; 63 g ai/ha", "value": 50}, {"measurement": "Post-emerge Herbicidal Activity SETVI", "setting": "[3]; 250 g ai/ha", "value": 90}, {"measurement": "Post-emerge Herbicidal Activity ABUTH", "setting": "[4]; 63 g ai/ha", "value": 100}, {"measurement": "Post-emerge Herbicidal Activity ABUTH", "setting": "[4]; 250 g ai/ha", "value": 100}, {"measurement": "Post-emerge Herbicidal Activity IPOHE", "setting": "[5]; 63 g ai/ha", "value": 100}, {"measurement": "Post-emerge Herbicidal Activity IPOHE", "setting": "[5]; 250 g ai/ha", "value": 100}, {"measurement": "Post-emerge Herbicidal Activity DIGSA", "setting": "[6]; 63 g ai/ha", "value": 20}, {"measurement": "Post-emerge Herbicidal Activity DIGSA", "setting": "[6]; 250 g ai/ha", "value": 60}, {"measurement": "Post-emerge Herbicidal Activity CHEAL", "setting": "[7]; 63 g ai/ha", "value": 100}, {"measurement": "Post-emerge Herbicidal Activity CHEAL", "setting": "[7]; 250 g ai/ha", "value": 100}, {"measurement": "Post-emerge Herbicidal Activity SORHA", "setting": "[8]; 63 g ai/ha", "value": 30}, {"measurement": "Post-emerge Herbicidal Activity SORHA", "setting": "[8]; 250 g ai/ha", "value": 50}, {"measurement": "Post-emerge Herbicidal Activity AMARE", "setting": "[9]; 63 g ai/ha", "value": 100}, {"measurement": "Post-emerge Herbicidal Activity AMARE", "setting": "[9]; 250 g ai/ha", "value": 100}, {"measurement": "Pre-emerge Herbicidal Activity AMARE", "setting": "[10]; rate 63 g ai/ha", "value": 100}, {"measurement": "Pre-emerge Herbicidal Activity AMARE", "setting": "[10]; rate 250 g ai/ha", "value": 100}, {"measurement": "Pre-emerge Herbicidal Activity CASOB", "setting": "[11]; rate 63 g ai/ha", "value": 70}, {"measurement": "Pre-emerge Herbicidal Activity CASOB", "setting": "[11]; rate 250 g ai/ha", "value": 100}, {"measurement": "Pre-emerge Herbicidal Activity ECHCG", "setting": "[12]; rate 63 g ai/ha", "value": 30}, {"measurement": "Pre-emerge Herbicidal Activity ECHCG", "setting": "[12]; rate 250 g ai/ha", "value": 70}, {"measurement": "Pre-emerge Herbicidal Activity SETVI", "setting": "[13]; rate 63 g ai/ha", "value": 80}, {"measurement": "Pre-emerge Herbicidal Activity SETVI", "setting": "[13]; rate 250 g ai/ha", "value": 100}, {"measurement": "Pre-emerge Herbicidal Activity ABUTH", "setting": "[14]; rate 63 g ai/ha", "value": 100}, {"measurement": "Pre-emerge Herbicidal Activity ABUTH", "setting": "[14]; rate 250 g ai/ha", "value": 100}, {"measurement": "Pre-emerge Herbicidal Activity IPOHE", "setting": "[15]; rate 63 g ai/ha", "value": 30}, {"measurement": "Pre-emerge Herbicidal Activity IPOHE", "setting": "[15]; rate 250 g ai/ha", "value": 100}, {"measurement": "Pre-emerge Herbicidal Activity DIGSA", "setting": "[16]; rate 63 g ai/ha", "value": 30}, {"measurement": "Pre-emerge Herbicidal Activity DIGSA", "setting": "[16]; rate 250 g ai/ha", "value": 100}, {"measurement": "Pre-emerge Herbicidal Activity CHEAL", "setting": "[17]; rate 63 g ai/ha", "value": 100}, {"measurement": "Pre-emerge Herbicidal Activity CHEAL", "setting": "[17]; rate 250 g ai/ha", "value": 100}, {"measurement": "Pre-emerge Herbicidal Activity SORHA", "setting": "[18]; rate 63 g ai/ha", "value": 20}, {"measurement": "Pre-emerge Herbicidal Activity SORHA", "setting": "[18]; rate 250 g ai/ha", "value": 60}, {"measurement": "Pre-emerge Herbicidal Activity RICE", "setting": "[19]; rate 63 g ai/ha", "value": 30}, {"measurement": "Pre-emerge Herbicidal Activity RICE", "setting": "[19]; rate 250 g ai/ha", "value": 70}, {"measurement": "Pre-emerge Herbicidal Activity CORN", "setting": "[20]; rate 63 g ai/ha", "value": 0}, {"measurement": "Pre-emerge Herbicidal Activity CORN", "setting": "[20]; rate 250 g ai/ha", "value": 25}, {"measurement": "Post-emerge Herbicidal Activity RICE", "setting": "[21]; 63 g ai/ha", "value": 60}, {"measurement": "Post-emerge Herbicidal Activity RICE", "setting": "[21]; 250 g ai/ha", "value": 75}, {"measurement": "Post-emerge Herbicidal Activity CORN", "setting": "[22]; 63 g ai/ha", "value": 30}, {"measurement": "Post-emerge Herbicidal Activity CORN", "setting": "[22]; 250 g ai/ha", "value": 70}]}]}
